Drawing on patent publication US6653300B2, “Pyrazole compounds useful as protein kinase inhibitors” (Vertex Pharmaceuticals Incorporated, priority 2000, dated 2003), this text covers Ki and melting point for 7 compounds.

The term Ki denotes the equilibrium dissociation constant of an inhibitor or competing ligand from its target. What is called melting point is the temperature, or range, at which the solid turns liquid.

The target of data set [1] is CDK-2/Cyclin A (Homo sapiens, UniProt P24941). The data set can be described thus: CDK-2 inhibition assay (coupled enzyme assay). In kind it is biochemical. Particulars: 25 nM CDK-2/Cyclin A, 30° C. The method, then: Compounds were screened in the following manner for their ability to inhibit CDK-2 using a standard coupled enzyme assay (Fox et al (1998) Protein Sci 7, 2249).
To an assay stock buffer solution containing 0.1M HEPES 7.5, 10 mM MgCl2, 1 mM DTT, 25 mM NaCl, 2.5 mM phosphoenolpyruvate, […], 30 mg/ml pyruvate kinase, 10 mg/ml lactate dehydrogenase, 100 mM ATP, and 100 μM peptide ([…], American Peptide, Sunnyvale, Calif.) was added a DMSO solution of a compound of the present invention to a final concentration of 30 μM. The resulting mixture was incubated at 30° C. for 10 min.
The reaction was initiated by the addition of 10 μL of CDK-2/Cyclin A stock solution to give a final concentration of 25 nM in the assay. The rates of reaction were obtained by monitoring absorbance at 340 nm over a 5-minute read time at 30° C. using a BioRad Ultramark plate reader (Hercules, Calif.). The Ki values were determined from the rate data as a function of inhibitor concentration.

Data set [2] concerns the target activated ERK2 (Homo sapiens, UniProt P28482). Briefly: ERK inhibition assay (spectrophotometric coupled-enzyme assay). In kind it is biochemical. Conditions: 10 nM activated ERK2, 65 μM ATP, 30° C.; read-out: Ki values for ERK-2. The method, then:
Compounds were assayed for the inhibition of ERK2 by a spectrophotometric coupled-enzyme assay (Fox et al (1998) Protein Sci 7, 2249).

Data set [3] has as its target T1, GSK-3β (AA 1-420) (Homo sapiens, UniProt P49841).
T1 construct: GSK-3β (AA 1-420)
Briefly: Ki determination for the inhibition of GSK-3 (coupled enzyme system). In kind it is biochemical. Particulars: 20 μM ATP, 20 nM GSK-3β, 30° C. Put shortly: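 GSK-3β (AA 1-420, 20 nM) was run in a pyruvate kinase/LDH-coupled NADH assay in 100 mM HEPES pH 7.5, 10 mM MgCl2, 25 mM NaCl, 1 mM DTT, 1.5% DMSO, with 300 μM phosphopeptide substrate. Compound (0.002–30 μM) was preincubated 10 min at 30° C, then 20 μM ATP was added.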

The target in data set [4] is T2, Aurora-2 (Homo sapiens, UniProt O14965).
T2 sequence (O14965 1-403): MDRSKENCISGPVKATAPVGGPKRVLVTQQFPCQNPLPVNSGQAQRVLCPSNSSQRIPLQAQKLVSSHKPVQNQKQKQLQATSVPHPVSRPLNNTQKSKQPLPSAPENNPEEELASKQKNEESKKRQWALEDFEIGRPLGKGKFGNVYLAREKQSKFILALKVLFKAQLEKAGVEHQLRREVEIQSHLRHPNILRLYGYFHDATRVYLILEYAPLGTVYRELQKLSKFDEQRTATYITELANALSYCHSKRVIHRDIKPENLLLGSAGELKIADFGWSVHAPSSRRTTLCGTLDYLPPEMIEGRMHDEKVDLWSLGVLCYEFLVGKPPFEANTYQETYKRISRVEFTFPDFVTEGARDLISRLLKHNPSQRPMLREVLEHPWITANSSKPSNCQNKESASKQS
Briefly: Ki determination for the inhibition of Aurora-2 (coupled enzyme assay). The class given is biochemical. Particulars: 70 nM Aurora-2, 30° C. Summed up: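 Ki came from reaction rates plotted against inhibitor concentration, with rates taken as A340 decrease over 5 min at 30° C. Enzyme (70 nM final) was added after 10 min compound preincubation; stock buffer held […], 800 μM LRRASLG, PK/LDH coupling, pH 7.5.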

Data set [5] deals with T3, human Src kinase (Homo sapiens, UniProt P12931).
T3 construct: full length recombinant human Src kinase (from Upstate Biotechnology, cat. no. 14-117); purchased Upstate Biotechnology 14-117; host or cells: baculo viral cells
T3 sequence (P12931 whole entry): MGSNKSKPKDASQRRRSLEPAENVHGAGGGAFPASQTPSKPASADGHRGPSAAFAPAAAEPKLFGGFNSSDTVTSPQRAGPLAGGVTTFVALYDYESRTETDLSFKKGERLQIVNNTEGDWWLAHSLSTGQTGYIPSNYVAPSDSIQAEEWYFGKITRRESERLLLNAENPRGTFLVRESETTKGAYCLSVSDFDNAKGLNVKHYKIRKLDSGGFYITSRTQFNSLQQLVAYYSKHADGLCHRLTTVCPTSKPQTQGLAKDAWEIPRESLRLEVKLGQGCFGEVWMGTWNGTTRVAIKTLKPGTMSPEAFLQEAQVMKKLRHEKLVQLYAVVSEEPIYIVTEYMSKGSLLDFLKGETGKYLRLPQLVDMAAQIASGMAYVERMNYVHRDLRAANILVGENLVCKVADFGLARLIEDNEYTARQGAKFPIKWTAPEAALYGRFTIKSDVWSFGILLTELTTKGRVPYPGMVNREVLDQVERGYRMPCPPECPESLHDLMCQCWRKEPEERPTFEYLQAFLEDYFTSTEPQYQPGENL
Briefly: SRC inhibition assay (radioactivity-based or spectrophotometric assay). In kind it is biochemical. Conditions: recombinant human Src kinase; assay A or B; read-out: Ki value on SRC. Put shortly:
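Full-length recombinant human Src from baculovirus was used. In the radiometric format, enzyme was preincubated 10 min at 30 °C, the reaction was started with ^33P-ATP and run 20 min, then TCA-quenched and filter-counted. The alternative format monitored poly Glu-Tyr phosphorylation by NADH-coupled A340 rate. Ki came from competitive-inhibition fits.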

Data set [6] concerns the target AKT-3 (Homo sapiens, UniProt Q9Y243). Briefly: AKT inhibition assay (coupled enzyme assay). In kind it is biochemical. Particulars: 45 nM AKT, 170 μM ATP, 30° C. The protocol:
Compounds were screened for their ability to inhibit AKT using a standard coupled enzyme assay (Fox et al., Protein Sci., (1998) 7, 2249). Assays were carried out in a mixture of 100 mM HEPES 7.5, 10 mM MgCl2, 25 mM NaCl, 1 mM DTT and 1.5% DMSO. Final substrate concentrations in the assay were 170 μM ATP (Sigma Chemicals) and 200 μM peptide (RPRAATF, American Peptide, Sunnyvale, Calif.). Assays were carried out at 30° C. and 45 nM AKT. Final concentrations of the components of the coupled enzyme system were 2.5 mM phosphoenolpyruvate, 300 μM NADH, 30 μg/ML pyruvate kinase and 10 μg/ml lactate dehydrogenase.
An assay stock buffer solution was prepared containing all of the reagents listed above, with the exception of AKT, DTT, and the test compound of interest. 56 μl of the stock solution was placed in a 384 well plate followed by addition of 1 μl of 2 mM DMSO stock containing the test compound (final compound concentration 30 μM). The plate was preincubated for about 10 minutes at 30° C. and the reaction initiated by addition of 10 μl of enzyme (final concentration 45 nM) and 1 mM DTT. Rates of reaction were obtained using a BioRad Ultramark plate reader (Hercules, Calif.) over a 5 minute read time at 30° C.

Sequence of activated ERK2 (P28482 whole entry): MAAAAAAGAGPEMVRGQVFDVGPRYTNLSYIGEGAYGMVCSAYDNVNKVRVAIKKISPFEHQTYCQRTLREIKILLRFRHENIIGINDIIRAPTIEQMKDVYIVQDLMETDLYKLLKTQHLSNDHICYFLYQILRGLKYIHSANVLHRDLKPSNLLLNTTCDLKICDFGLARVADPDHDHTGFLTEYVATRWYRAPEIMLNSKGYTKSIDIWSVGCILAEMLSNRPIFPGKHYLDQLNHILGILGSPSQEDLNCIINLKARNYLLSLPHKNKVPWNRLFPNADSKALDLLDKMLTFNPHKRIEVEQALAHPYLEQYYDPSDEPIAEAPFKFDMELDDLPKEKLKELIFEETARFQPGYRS
T1 sequence (P49841 whole entry, the tested form may be a part): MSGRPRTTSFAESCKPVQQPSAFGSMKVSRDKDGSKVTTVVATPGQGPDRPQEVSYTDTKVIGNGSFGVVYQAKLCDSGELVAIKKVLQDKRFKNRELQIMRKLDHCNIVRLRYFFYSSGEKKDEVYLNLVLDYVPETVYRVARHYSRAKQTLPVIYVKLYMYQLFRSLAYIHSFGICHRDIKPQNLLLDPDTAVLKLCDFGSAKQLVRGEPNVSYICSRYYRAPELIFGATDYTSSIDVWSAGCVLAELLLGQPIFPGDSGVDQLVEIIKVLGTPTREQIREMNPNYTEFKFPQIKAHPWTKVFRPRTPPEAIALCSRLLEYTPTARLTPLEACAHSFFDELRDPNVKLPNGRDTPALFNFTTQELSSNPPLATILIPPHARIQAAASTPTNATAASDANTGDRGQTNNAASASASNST
Sequence of AKT-3 (Q9Y243 whole entry, species assumed): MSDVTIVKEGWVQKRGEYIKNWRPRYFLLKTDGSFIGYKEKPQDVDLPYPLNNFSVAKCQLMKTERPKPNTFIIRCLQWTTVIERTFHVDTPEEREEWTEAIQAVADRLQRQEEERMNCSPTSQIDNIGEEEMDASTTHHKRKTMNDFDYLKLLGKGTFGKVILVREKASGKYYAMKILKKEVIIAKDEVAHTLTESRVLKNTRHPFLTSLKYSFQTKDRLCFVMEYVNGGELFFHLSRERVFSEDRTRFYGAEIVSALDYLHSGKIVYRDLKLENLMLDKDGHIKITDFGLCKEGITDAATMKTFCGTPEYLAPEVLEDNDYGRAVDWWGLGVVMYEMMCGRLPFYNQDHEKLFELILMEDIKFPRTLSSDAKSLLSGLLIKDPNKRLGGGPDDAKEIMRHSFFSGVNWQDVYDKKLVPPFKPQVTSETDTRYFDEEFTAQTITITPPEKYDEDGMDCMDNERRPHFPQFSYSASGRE

As for `N#CCc1ccc(Nc2nc(Nc3cc(C4CC4)[nH]n3)cc(-c3ccccc3)n2)cc1` [IIIc-4, [2-(4-cyanomethylphenylamino)-6-phenyl-pyrimidin-4-yl]-(5-cyclopropyl-2H-pyrazol-3-yl)-amine], the melting point fell in the range of 294 to 297 °C. The compound further returned a Ki in data set [1] below 1 µM. In addition, the inhibition constant Ki in data set [2] was below 1 µM.

For `CC(=O)Nc1ccc(Sc2nc(Nc3cc(C4CC4)[nH]n3)c3ccccc3n2)cc1` [IIa-36, [2-(4-Acetamido-phenylsulfanyl)-quinazolin-4-yl]-(5-cyclopropyl-2H-pyrazol-3-yl)-amine], the inhibition constant (Ki) in data set [1] was below 1 µM; in data set [2] it was 1 to 20 µM.

In turn, `Cc1cc(Nc2nc(Nc3ccc(CC#N)cc3)nc3ccccc23)n[nH]1` [IIc-15, [2-(4-Cyanomethylphenylamino)-quinazolin-4-yl]-(5-methyl-2H-pyrazol-3-yl)-amine] yielded a melting point above 250 °C. For the same compound, the Ki in data set [3] was below 0.1 µM. Besides, the Ki in data set [4] was below 0.1 µM. This compound also yielded an inhibitory constant (Ki) in data set [1] below 1 µM. Besides, the Ki in data set [2] is below 1 µM. In addition, in data set [5], the inhibition constant (Ki) is below 0.1 µM.

`c1ccc(Nc2nc(Nc3cc(C4CC4)[nH]n3)c3ccccc3n2)cc1` [IIc-18, (5-Cyclopropyl-2H-pyrazol-3-yl)-(2-phenylamino-quinazolin-4-yl)-amine] returned a melting point of 234 °C. Besides, in data set [3], the Ki is below 0.1 µM. This compound also came in with a Ki in data set [4] below 0.1 µM. The Ki in data set [2] lay in the range of 1 to 20 µM. Besides, the Ki in data set [6] lay within 1 to 20 µM. Also, in data set [5], the inhibition constant (Ki) is below 0.1 µM.

As for `CCc1ccc(Nc2nc(Nc3cc(C4CC4)[nH]n3)c3ccccc3n2)cc1` [IIc-25, (5-Cyclopropyl-2H-pyrazol-3-yl)-[2-(4-ethylphenylamino)-quinazolin-4-yl]-amine], the melting point is 250 to 251 °C. Besides, the inhibitory constant (Ki) in data set [3] is below 0.1 µM. The same compound gave a Ki in data set [4] below 0.1 µM. The compound further showed a Ki in data set [1] below 1 µM. In data set [2], the inhibition constant (Ki) is 1 to 20 µM. Further, the Ki in data set [6] lay within 1 to 20 µM.

`OCCc1ccc(Nc2nc(Nc3cc(C4CC4)[nH]n3)c3ccccc3n2)cc1` [IIc-27, (5-Cyclopropyl-2H-pyrazol-3-yl)-{2-[4-(2-hydroxyethyl)phenylamino]-quinazolin-4-yl}-amine]: the melting point lay in the range of 255 to 256 °C. This compound showed a Ki in data set [3] below 0.1 µM. The inhibition constant (Ki) in data set [4] is below 0.1 µM. For the same compound, the inhibition constant Ki in data set [1] was below 1 µM. Besides, the inhibitory constant (Ki) in data set [2] is below 1 µM. In data set [6], this compound registered a Ki of 1 to 20 µM.

Regarding `Cc1cc(Nc2nc(Nc3ccc4ncsc4c3)nc3ccccc23)n[nH]1` [IIc-53, [2-(Benzothiazol-6-ylamino)-quinazolin-4-yl]-(5-methyl-2H-pyrazol-3-yl)-amine], the melting point fell in the range of 236 to 239 °C. Further, the Ki in data set [3] was below 0.1 µM. For the same compound, the inhibition constant (Ki) in data set [4] is below 0.1 µM. Further, the Ki in data set [1] is below 1 µM. Also, the inhibitory constant (Ki) in data set [2] was below 1 µM. The compound further registered an inhibition constant Ki in data set [6] of 1 to 20 µM.
